Where “and” joins values, the source holds several entries; their conditions need not be identical. Equal entries are not always repeated.
Columns and labels:
[1] = tested on: aerobic total count; assay: Preservative action in cooked chicken breast, aerobic total count; type: cell-based; settings: Example 9, cooked chicken, 0.2 g/kg
Protocol: (2) Determination of Preservative Action in Chicken Breast. Process of Preparation • 1. Fresh chicken breast was diced to pieces • 2. Brine (8.70% sodium chloride and 4.35% tripolyphosphate in water) was added to the fresh chicken in an amount of 11.5 g brine per 88.5 g meat in the control preparation and 11.5 g brine and 88.4 g meat in the preparations treated with preservative. • 3. Brine and meat were mixed during 15 minutes, in the preparations treated with preservative the preservative was added after 14 minutes in an amount of 0.2 g/kg. • 4. Vacuum refrigerate tumbling was made during 30 minutes. • 5. Samples were vacuum-packed in sterile bags and they were cooked at 85° C. for 30 minutes. • 6. The cooked chicken was refrigerated at 4° C. • 7. The cooked chicken was diced in irregular shapes. • 8. Then, the nuggets were stored at 10° C. in sterile vacuum-packed bags. Analysis […] Dilutions were made in buffered peptone water. Tryptone Soya Agar was harvested with each dilution and incubated at 35° C. for 48 hours. The mean value in log cfu/g of three samples per treatment and day of analysis was calculated.

[2] = tested on: Aerobes; assay: Preservative action in cosmetic products (Antimicrobial Effectiveness Testing USP 24th Edition), aerobes; type: cell-based; settings: Example 10, oil in water emulsion with non-ionic surfactant, 0.2 g/kg
Excerpt: (§1) (1) Determination of Preservative Action in Cosmetic Products. […] This assay consists of the contamination of the protecting formulations with an inoculum mixture of 10^8 cfu/ml concentration, for each of the micro-organisms, and the determination of the number of viable cells in time. This inoculum mixture is composed of the following microorganisms: [table] The cosmetic composition to be analysed is divided into sterile containers with 50 g of product for each flask. Each container is inoculated with 0.5 ml of inoculum (10^8 cfu/ml). The target concentration is 10^6 cfu/ml, approximately. All the containers are kept at a temperature between 20-25° C. and are protected from light. The level of the microbial contamination is checked at 0 hours, 7 days, 14 days and 28 days. The number of colonies is evaluated by dilution in buffer peptone with the appropriate neutraliser agent of the preservative. The culture media used for counting the microorganisms are: […] (2) Determination of Preservative Action in Chicken Breast. Process of Preparation • 1. Fresh chicken breast was diced to pieces • 2. Brine (8.70% sodium chloride and 4.35% tripolyphosphate in water) was added to the fresh chicken in an amount of 11.5 g brine per 88.5 g meat in the control preparation and 11.5 g brine and 88.4 g meat in the preparations treated with preservative. • 3. Brine and meat were mixed during 15 minutes, in the preparations treated with preservative the preservative was added after 14 minutes in an amount of 0.2 g/kg. • 4. Vacuum refrigerate tumbling was made during 30 minutes. • 5. Samples were vacuum-packed in sterile bags and they were cooked at 85° C. for 30 minutes. • 6. The cooked chicken was refrigerated at 4° C. • 7. The cooked chicken was diced in irregular shapes. • 8. Then, the nuggets were stored at 10° C. in sterile vacuum-packed bags. Analysis

[3] = tested on: Moulds; assay: Preservative action in cosmetic products (Antimicrobial Effectiveness Testing USP 24th Edition), moulds; type: cell-based, Aspergillus niger; settings: Example 10, oil in water emulsion with non-ionic surfactant, 0.2 g/kg
Excerpt: as §1

[4] = tested on: Yeast; assay: Preservative action in cosmetic products (Antimicrobial Effectiveness Testing USP 24th Edition), yeast; type: cell-based, Candida albicans; settings: Example 10, oil in water emulsion with non-ionic surfactant, 0.2 g/kg
Excerpt: as §1

[5] = day 56 (8 weeks), mean of triplicate

SMILES	aerobic total count, mean ([1]; day 0, mean of triplicate) [log cfu/g]	aerobic total count ([1]; day 0, samples 1-3) [log cfu/g]	aerobic total count, mean ([1]; day 7, mean of triplicate) [log cfu/g]	aerobic total count ([1]; day 7, samples 1-3) [log cfu/g]	aerobic total count, mean ([1]; day 14, mean of triplicate) [log cfu/g]	aerobic total count ([1]; day 14, samples 1-3) [log cfu/g]	aerobic total count, mean ([1]; day 21, mean of triplicate) [log cfu/g]	aerobic total count ([1]; day 21, samples 1-3)	aerobic total count, mean ([1]; day 28, mean of triplicate) [log cfu/g]	aerobic total count ([1]; day 28, samples 1-3)	aerobic total count, mean ([1]; day 35, mean of triplicate) [log cfu/g]	aerobic total count ([1]; day 35, samples 1-3)	aerobic total count, mean ([1]; day 42, mean of triplicate) [log cfu/g]	aerobic total count ([1]; day 42, samples 1-3)	aerobic total count, mean ([1]; day 49, mean of triplicate) [log cfu/g]	aerobic total count ([1]; day 49, samples 1-3)	aerobic total count, mean [1, 5] [log cfu/g]	aerobic total count ([1]; day 56, samples 1-3)	Aerobes count ([2]; 0 days) [log cfu/g]	Aerobes count ([2]; 7 days) [log cfu/g]	also measured
CCCCCCCCCCCC(=O)N[C@@H](CCCN=C(N)N)C(=O)OCC.N[C@@H](CCC(=O)O)C(=O)O [LAE Gl, LAE glutamate]	2.0	2.0	2.0	2.0	2.0	2.0	2.1	2.1 log cfu/g and 2.2 log cfu/g and 2.0 log cfu/g	2.3	2.5 log cfu/g and 2.1 log cfu/g and 2.2 log cfu/g	2.4	2.3 log cfu/g and 2.5 log cfu/g	2.7	2.6 log cfu/g and 2.8 log cfu/g	3.2	3.2 log cfu/g and 3.0 log cfu/g and 3.5 log cfu/g	3.5	3.5 log cfu/g and 3.8 log cfu/g and 3.3 log cfu/g	6.1	2.3	Aerobes count ([2]; 14 days): <2.0 log cfu/g; Moulds count ([3]; 0 days): 4.1 log cfu/g; Moulds count ([3]; 7 days): <2.0 log cfu/g; Moulds count ([3]; 14 days): <2.0 log cfu/g; Yeast count ([4]; 0 days): 5.6 log cfu/g; Yeast count ([4]; 7 days): 2.4 log cfu/g; Yeast count ([4]; 14 days): <2.0 log cfu/g
CC(O)C(=O)O.CCCCCCCCCCCC(=O)N[C@@H](CCCN=C(N)N)C(=O)OCC [LAE La, LAE lactate]	2.0	2.0	2.0	2.0	2.0	2.0	2.2	2.1 log cfu/g and 2.4 log cfu/g and 2.0 log cfu/g	2.3	2.6 log cfu/g and 2.1 log cfu/g and 2.3 log cfu/g	2.7	2.8 log cfu/g and 2.5 log cfu/g	3.3	3.1 log cfu/g and 3.5 log cfu/g and 3.3 log cfu/g	3.6	3.3 log cfu/g and 3.6 log cfu/g and 3.9 log cfu/g	4.1	4.2 log cfu/g and 4.0 log cfu/g and 3.9 log cfu/g	6.1	2.2	Aerobes count ([2]; 14 days): <2.0 log cfu/g; Moulds count ([3]; 0 days): 4.2 log cfu/g; Moulds count ([3]; 7 days): <2.0 log cfu/g; Moulds count ([3]; 14 days): <2.0 log cfu/g; Yeast count ([4]; 0 days): 5.4 log cfu/g; Yeast count ([4]; 7 days): 2.2 log cfu/g; Yeast count ([4]; 14 days): <2.0 log cfu/g
CC(=O)O.CCCCCCCCCCCC(=O)N[C@@H](CCCN=C(N)N)C(=O)OCC [LAE Ac, LAE acetate]	2.0	2.0	2.0	2.0	2.0	2.0	2.1	2.1 log cfu/g and 2.3 log cfu/g and 2.0 log cfu/g	2.5	3.0 log cfu/g and 2.1 log cfu/g and 2.3 log cfu/g	2.5	2.3 log cfu/g and 2.8 log cfu/g and 2.5 log cfu/g	3.1	3.1 log cfu/g and 2.8 log cfu/g and 3.3 log cfu/g	3.4	3.3 log cfu/g and 3.0 log cfu/g and 3.9 log cfu/g	3.9	3.8 log cfu/g and 4.0 log cfu/g and 3.9 log cfu/g	6.0	2.5	Aerobes count ([2]; 14 days): <2.0 log cfu/g; Moulds count ([3]; 0 days): 4.1 log cfu/g; Moulds count ([3]; 7 days): <2.0 log cfu/g; Moulds count ([3]; 14 days): <2.0 log cfu/g; Yeast count ([4]; 0 days): 5.3 log cfu/g; Yeast count ([4]; 7 days): 2.1 log cfu/g; Yeast count ([4]; 14 days): <2.0 log cfu/g
